From patent US10669272B2, “Substituted naphthyridinone compounds useful as T cell activators” (BRISTOL-MYERS SQUIBB COMPANY, priority 2018, dated 2020) come the findings set out here.

One assay addresses T1, human DGKζ (Homo sapiens, UniProt Q13574).
T1 construct: TVMV protease cleavage site (C); Hexa-His (C); made in house; host or cells: Sf9 insect cells (baculovirus, Bac-to-Bac)
As to the kind of experiment: DGKζ LIPGLO assay (extruded liposome substrate), in vitro DGK inhibition. The assay is classed as biochemical. The settings on record: read-out: DGKz LIPGLO IC50.

Another assay deals with Human venous whole blood. As to the kind of experiment: Human whole blood IFN-γ assay.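 Note: blood from healthy donors exposed to compound for 1 h before stimulation with anti-CD3 and anti-CD28 at 1 µg/mL each, IFN-γ quantified in supernatant by AlphaLISA.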 The assay is classed as cell-based. Particulars: human whole blood, read-out: INFg Whole Blood Normalized Agonist EC50.
In the next assay the target is T2, human DGKα (Homo sapiens, UniProt P23743).
T2 construct: TVMV protease cleavage site (C); Hexa-His (C); made in house; host or cells: Sf9 insect cells (baculovirus, Bac-to-Bac)
The assay is described as follows: DGKα LIPGLO assay (extruded liposome substrate), in vitro DGK inhibition. It is filed as biochemical. Particulars: read-out: DGKa LIPGLO IC50.

Where [1] appears, read: Homo sapiens, 24 h, normalized to 3 μM reference compound with anti-CD3 plus anti-CD28 as 100% activation.
Setting [2] is: normalized to 3 μM reference compound with anti-CD3 plus anti-CD28 as 100% activation.
The mark [3] stands for this setting: anti-CD3 plus anti-CD28, 24 hours, 3 μM reference compound = 100% activation.
The mark [4] stands for this setting: Homo sapiens, 24 h, anti-CD3 plus anti-CD28, 24 hours, 3 μM reference compound = 100% activation.

Where two headings read alike, the source gives them in different places.

T2 sequence (P23743 with tags, fused parts or gaps): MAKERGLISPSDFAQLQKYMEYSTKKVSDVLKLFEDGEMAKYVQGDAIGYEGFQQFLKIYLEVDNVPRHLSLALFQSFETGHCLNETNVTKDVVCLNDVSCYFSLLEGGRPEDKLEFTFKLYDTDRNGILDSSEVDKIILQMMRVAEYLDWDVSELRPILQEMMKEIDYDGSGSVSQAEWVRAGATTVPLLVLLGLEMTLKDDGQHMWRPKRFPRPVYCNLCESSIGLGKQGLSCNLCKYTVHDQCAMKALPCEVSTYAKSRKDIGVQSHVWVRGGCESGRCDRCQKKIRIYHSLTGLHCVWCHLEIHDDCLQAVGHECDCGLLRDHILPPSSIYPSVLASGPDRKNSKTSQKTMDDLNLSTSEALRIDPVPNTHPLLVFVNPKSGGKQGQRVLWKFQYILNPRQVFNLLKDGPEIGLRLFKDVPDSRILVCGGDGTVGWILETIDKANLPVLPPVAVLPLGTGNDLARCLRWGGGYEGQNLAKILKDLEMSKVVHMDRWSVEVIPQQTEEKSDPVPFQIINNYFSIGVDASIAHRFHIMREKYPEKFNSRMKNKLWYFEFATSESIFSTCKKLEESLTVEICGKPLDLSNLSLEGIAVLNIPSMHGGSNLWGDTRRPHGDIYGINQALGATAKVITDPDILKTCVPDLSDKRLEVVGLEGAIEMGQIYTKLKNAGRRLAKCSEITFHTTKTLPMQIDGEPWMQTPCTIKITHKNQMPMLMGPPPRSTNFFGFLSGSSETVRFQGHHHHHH
T1 sequence (Q13574 with tags, fused parts or gaps isoform Q13574-4): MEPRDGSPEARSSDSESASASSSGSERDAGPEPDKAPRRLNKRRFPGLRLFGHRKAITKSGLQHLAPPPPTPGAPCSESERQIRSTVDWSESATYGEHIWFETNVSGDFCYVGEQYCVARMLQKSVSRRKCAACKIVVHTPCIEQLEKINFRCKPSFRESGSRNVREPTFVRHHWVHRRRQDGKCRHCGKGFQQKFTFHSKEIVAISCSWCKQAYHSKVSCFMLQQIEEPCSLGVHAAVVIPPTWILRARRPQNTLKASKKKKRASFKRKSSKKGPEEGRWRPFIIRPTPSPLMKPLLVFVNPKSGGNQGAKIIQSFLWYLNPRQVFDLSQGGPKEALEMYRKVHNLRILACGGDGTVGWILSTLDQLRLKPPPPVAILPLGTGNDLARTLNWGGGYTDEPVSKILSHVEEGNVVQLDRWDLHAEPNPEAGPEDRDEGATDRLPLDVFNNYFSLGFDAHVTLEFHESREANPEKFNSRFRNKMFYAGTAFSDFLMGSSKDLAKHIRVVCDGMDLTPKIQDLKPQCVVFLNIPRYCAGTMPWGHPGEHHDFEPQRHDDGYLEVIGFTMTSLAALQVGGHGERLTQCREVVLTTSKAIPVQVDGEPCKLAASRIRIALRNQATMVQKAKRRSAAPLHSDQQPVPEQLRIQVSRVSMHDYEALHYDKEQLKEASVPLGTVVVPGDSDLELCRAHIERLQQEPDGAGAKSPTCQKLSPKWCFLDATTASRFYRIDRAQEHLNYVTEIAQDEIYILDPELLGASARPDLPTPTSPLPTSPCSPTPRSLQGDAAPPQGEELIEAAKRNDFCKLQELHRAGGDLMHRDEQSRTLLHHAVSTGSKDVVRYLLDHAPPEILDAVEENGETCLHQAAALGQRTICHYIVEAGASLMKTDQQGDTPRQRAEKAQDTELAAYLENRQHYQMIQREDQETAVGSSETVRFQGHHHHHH
Method for Human venous whole blood: Human Whole Blood IFN-γ Assay
Human venous whole blood (22.5 μL per well), obtained from healthy donors, was pre-treated with compounds for one hour at 37° C. in a humidified 95% air/5% CO2 incubator. The blood was stimulated with 2.5 μL anti-human CD3 and anti-CD28 mAb at a final concentration of 1 μg/mL each for 24 hours at 37° C. IFN-γ in the supernatants was measured using AlphLISA kit (Cat # AL217).

As a reminder, the IC50 is the concentration needed to halve the response being measured. As a reminder, the EC50 is the concentration giving half of the maximal effect. Take `CC[C@@H]1CN(c2cc(=O)n(C)c3ccc(C#N)nc23)[C@@H](C)CN1Cc1c(F)cc(F)cc1F` [Example 1080]: the results for the IC50 on human DGKζ (liposome (LIPGLO) assay) and on human DGKα (liposome (LIPGLO) assay) were 690 nM and 640 nM, respectively. Moreover, the EC50 with Human venous whole blood (setting [1]) turned out to be 240 nM.

Turning to `C[C@@H]1CN(c2cc(=O)n(C)c3ccc(C#N)nc23)[C@@H](C)CN1C(c1ccc(F)cc1)c1cccc(S(C)(=O)=O)c1` (single isomer, unassigned) [Example 688], the IC50 at human DGKζ (liposome (LIPGLO) assay) amounted to 24000 nM; at human DGKα (liposome (LIPGLO) assay), 83000 nM. Further, in the assay on Human venous whole blood (setting [2]), the EC50 was 13000 nM.

As to `Cc1cccc(C(C)N2CCN(c3c(C#N)c(=O)n(C)c4ccc(C#N)nc34)C[C@H]2C)n1` (stereo partly drawn) [Example 967], the IC50 was determined as 51000 nM at human DGKζ (DGKζ liposome (LIPGLO) assay) and 2800 nM on human DGKα (DGKα liposome (LIPGLO) assay). Also, in the assay on Human venous whole blood (setting [3]), the EC50 stood at 18000 nM.

As to `COC[C@@H]1CN(c2cc(=O)n(C)c3ccc(C#N)nc23)[C@@H](C)CN1C(c1ccc(F)cc1)c1ccc(C#N)cc1` (single isomer, unassigned) [Example 1158], the IC50 on human DGKζ (liposome (LIPGLO) assay) was 1300 nM; at human DGKα (liposome (LIPGLO) assay), 6500 nM. For the same compound, the EC50 in the assay with Human venous whole blood (setting [2]) was determined as 350 nM.

Consider `CC[C@H]1CN(C(C)c2ccc(F)cc2F)[C@H](CC)CN1c1cc(=O)n(C)c2ccc(C#N)nc12` (single isomer, unassigned) [Example 1056], for which the IC50 on human DGKζ (liposome (LIPGLO) assay) came to 590 nM; at human DGKα (liposome (LIPGLO) assay), 880 nM. In addition, the EC50 in the assay with Human venous whole blood (setting [2]) amounted to 580 nM.

Take `C[C@@H]1CN(c2cc(=O)n(C)c3ccc(C#N)nc23)[C@@H](C)CN1C(c1ccc(F)cc1)c1ncco1` (stereo partly drawn) [Example 718]: the IC50 turned out to be 4600 nM at human DGKζ (liposome (LIPGLO) assay) and 90 nM on human DGKα (liposome (LIPGLO) assay). In addition, the EC50 with Human venous whole blood (setting [2]) came to 830 nM.

Consider `C[C@@H]1CN(c2c(C#N)c(=O)n(C)c3ccc(C#N)nc23)[C@@H](C)CN1C(c1ccc(F)cc1)c1cscn1` (single isomer, unassigned) [Example 857], for which the IC50 at human DGKζ (DGKζ liposome (LIPGLO) assay) turned out to be 1900 nM; on human DGKα (DGKα liposome (LIPGLO) assay) it was 1000 nM. For the same compound, the EC50 with Human venous whole blood (setting [4]) was 1400 nM.

Take `C[C@@H]1CN(c2cc(=O)n(C)c3ccc(C#N)nc23)[C@@H](C)CN1C(CO)c1ccc(C(F)(F)F)cn1` (single isomer, unassigned) [Example 1280]: the IC50 on human DGKζ (liposome (LIPGLO) assay) amounted to 8500 nM; at human DGKα (liposome (LIPGLO) assay), 1300 nM. Besides, in the assay with Human venous whole blood (setting [1]), the EC50 stood at 9900 nM.

For the compound `C[C@@H]1CN(c2c(C#N)c(=O)n(C)c3ccc(C#N)nc23)[C@@H](C)CN1C(c1ccc(F)cc1)c1cncn1C` (stereo partly drawn) [Example 848], the half-maximal inhibitory concentration (IC50) on human DGKζ (DGKζ liposome (LIPGLO) assay) came out at 100000 nM; on human DGKα (DGKα liposome (LIPGLO) assay) it was 230000 nM. The concentration for a half-maximal effect (EC50) in the assay with Human venous whole blood (setting [4]) turned out to be 20000 nM.

With `COc1ccc(C(C)N2C[C@H](C)N(c3cc(=O)n(C)c4ccc(C#N)nc34)C[C@H]2C)nc1` (single isomer, unassigned) [Example 644], the IC50 is 500 nM on human DGKζ (liposome (LIPGLO) assay) and 160 nM at human DGKα (liposome (LIPGLO) assay). Besides, the EC50 in the assay with Human venous whole blood (setting [2]) is 3800 nM.

For the compound `CC[C@@H]1CN(c2cc(=O)n(C)c3ccc(C#N)nc23)[C@@H](CC)CN1Cc1ccc2c(c1)OC(F)(F)O2` [Example 1063], the IC50 was 1800 nM on human DGKζ (liposome (LIPGLO) assay) and 1100 nM at human DGKα (liposome (LIPGLO) assay). Also, the 50% effective concentration (EC50) in the assay on Human venous whole blood (setting [1]) came to 430 nM.

Regarding `CCc1noc(C(c2ccc(F)cc2)N2C[C@H](C)N(c3cc(=O)n(C)c4ccc(C#N)nc34)C[C@H]2C)n1` (single isomer, unassigned) [Example 754], the 50% inhibitory concentration (IC50) on human DGKζ (DGKζ liposome (LIPGLO) assay) is 230 nM; at human DGKα (DGKα liposome (LIPGLO) assay), 58 nM. In the assay on Human venous whole blood (setting [3]), the EC50 is 91 nM.

As for `CC(c1ccc(OC(F)(F)F)cc1)N1CCN(c2c(C#N)c(=O)n(C)c3ccc(C#N)nc23)C[C@H]1C` (single isomer, unassigned) [Example 962], the values for the IC50 at human DGKζ (DGKζ liposome (LIPGLO) assay) and at human DGKα (DGKα liposome (LIPGLO) assay) were over 250000 nM and 1500 nM, respectively. In addition, the EC50 in the assay on Human venous whole blood (setting [3]) is 20000 nM.

Consider `C[C@@H]1CN(c2cc(=O)n(C)c3ccc(C#N)nc23)[C@@H](C)CN1C(c1ccc(F)cc1)C1CCCCO1` (single isomer, unassigned) [Example 358], for which the IC50 on human DGKζ (liposome (LIPGLO) assay) was determined as 21000 nM; on human DGKα (liposome (LIPGLO) assay), 9000 nM. Besides, the EC50 with Human venous whole blood (setting [1]) worked out at 1000 nM.

Turning to `CC(c1ccccn1)N1CCN(c2c(C#N)c(=O)n(C)c3ccc(C#N)nc23)C[C@H]1C` (single isomer, unassigned) [Example 963], the 50% inhibitory concentration (IC50) is 180000 nM on human DGKζ (DGKζ liposome (LIPGLO) assay) and 1400 nM at human DGKα (DGKα liposome (LIPGLO) assay). Moreover, the EC50 in the assay on Human venous whole blood (setting [4]) was 20000 nM.

Turning to `C[C@@H]1CN(c2c(C#N)c(=O)n(C)c3ccc(C#N)nc23)CCN1C(c1ccc(F)cc1)c1ccnc(C(C)(C)C)n1` (stereo partly drawn) [Example 321, 8-((3R)-4-((2-(tert-butyl)pyrimidin-4-yl)(4-fluorophenyl)methyl)-3-methylpiperazin-1-yl)-5-methyl-6-oxo-5,6-dihydro-1,5-naphthyridine-2,7-dicarbonitrile], the values for the 50% inhibitory concentration (IC50) at human DGKζ (liposome (LIPGLO) assay) and on human DGKα (liposome (LIPGLO) assay) were 240 nM and 4300 nM, respectively. Further, in the assay with Human venous whole blood (setting [1]), the EC50 is 950 nM.

Turning to `C[C@@H]1CN(c2c(C#N)c(=O)n(C)c3ccc(C#N)nc23)[C@@H](C)CN1C(c1ccc(F)cc1)c1csc(C2CC2)n1` (single isomer, unassigned) [Example 859], the IC50 came out at 360 nM at human DGKζ (DGKζ liposome (LIPGLO) assay) and 3000 nM on human DGKα (DGKα liposome (LIPGLO) assay). Further, the EC50 with Human venous whole blood (setting [3]) turned out to be 3700 nM.

For `COc1cccc(C(c2ccc(F)cc2)N2C[C@H](C)N(c3cc(=O)n(C)c4ccc(C#N)nc34)C[C@H]2C)c1` (single isomer, unassigned) [Example 660], the results for the IC50 on human DGKζ (liposome (LIPGLO) assay) and on human DGKα (liposome (LIPGLO) assay) were 510 nM and 17000 nM, respectively. In addition, the EC50 in the assay with Human venous whole blood (setting [1]) came to 660 nM.

Take `CC(C)Oc1ccc(C(c2cccc(F)c2)N2C[C@H](C)N(c3cc(=O)n(C)c4ccc(C#N)nc34)C[C@H]2C)nc1` (stereo partly drawn) [Example 690]: the IC50 is 390 nM at human DGKζ (liposome (LIPGLO) assay) and 1500 nM on human DGKα (liposome (LIPGLO) assay). For the same compound, the EC50 in the assay on Human venous whole blood (setting [1]) stood at 3500 nM.

Regarding `CC[C@H]1CN(C(c2ccc(F)cc2)c2ccc(C#N)cc2)[C@H](C)CN1c1cc(=O)n(C)c2ccc(C#N)nc12` (stereo partly drawn) [Example 1124], the 50% inhibitory concentration (IC50) on human DGKζ (liposome (LIPGLO) assay) was found to be 3100 nM; at human DGKα (liposome (LIPGLO) assay), 880 nM. In addition, the EC50 with Human venous whole blood (setting [2]) came out at 1400 nM.

On to `CC[C@@H]1CN(c2cc(=O)n(C)c3ccc(C#N)nc23)[C@@H](C)CN1C(C)c1ccc(C#N)cc1` (single isomer, unassigned) [Example 1345], for which the IC50 amounted to 75 nM at human DGKζ (liposome (LIPGLO) assay) and 41 nM at human DGKα (liposome (LIPGLO) assay). For the same compound, the EC50 in the assay on Human venous whole blood (setting [2]) was 480 nM.

Take `C[C@@H]1CN(c2c(C#N)c(=O)n(C)c3ccc(C#N)nc23)CCN1C(c1ccc(F)cc1)c1ccccn1` (single isomer, unassigned) [Example 919]: the IC50 came out at 5800 nM at human DGKζ (DGKζ liposome (LIPGLO) assay) and 980 nM at human DGKα (DGKα liposome (LIPGLO) assay). Further, in the assay with Human venous whole blood (setting [3]), the EC50 was 1400 nM.

Turning to `Cc1ccc(C(c2cc(C)ccn2)N2C[C@H](C)N(c3cc(=O)n(C)c4ccc(C#N)nc34)C[C@H]2C)cc1` (single isomer, unassigned) [Example 461], the values for the IC50 on human DGKζ (liposome (LIPGLO) assay) and at human DGKα (liposome (LIPGLO) assay) were 3600 nM and 1400 nM, respectively. In addition, the EC50 in the assay with Human venous whole blood (setting [2]) was 2100 nM.

In the case of `C[C@@H]1CN(c2c(C#N)c(=O)n(C)c3ccc(C#N)nc23)[C@@H](C)CN1C(c1ccc(F)cc1)c1ccc(C#N)cc1` (single isomer, unassigned) [Example 823], the 50% inhibitory concentration (IC50) is 40000 nM at human DGKζ (DGKζ liposome (LIPGLO) assay) and 18000 nM on human DGKα (DGKα liposome (LIPGLO) assay). Moreover, in the assay on Human venous whole blood (setting [3]), the EC50 was found to be 7600 nM.

As for `C[C@@H]1CN(c2cc(=O)n(C)c3ccc(C#N)nc23)[C@@H](C)CN1C(c1ccc(F)cc1)c1nc(C2CCN(C)CC2)no1` (single isomer, unassigned) [Example 752], the half-maximal inhibitory concentration (IC50) on human DGKζ (DGKζ liposome (LIPGLO) assay) is 4100 nM; on human DGKα (DGKα liposome (LIPGLO) assay), 1000 nM. Besides, the EC50 with Human venous whole blood (setting [3]) came out at 1700 nM.

With `C[C@@H]1CN(c2c(C#N)c(=O)n(C)c3ccc(C#N)nc23)CCN1C(c1ccc(F)cc1)c1cncn1C` (single isomer, unassigned) [Example 1018], the half-inhibitory concentration (IC50) was determined as 74000 nM at human DGKζ (DGKζ liposome (LIPGLO) assay) and 81000 nM on human DGKα (DGKα liposome (LIPGLO) assay). Further, in the assay with Human venous whole blood (setting [4]), the EC50 worked out at 20000 nM.
